Columns and labels:
Format in all cases: in vivo
[1] = tested on: ryegrass, Italian (Lolium multiflorum); experiment: Test A preemergence, Italian ryegrass; conditions: 0 to 100 scale, 0 is no effect, 100 is complete control
In short: (§1)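 Ratings reflect visual comparison with untreated controls roughly 10 d after greenhouse application, 0 meaning no effect and 100 complete control. Treatment was by directed soil spray at planting or by spray onto one- to two-leaf plants in loam/sand pots.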

[2] = tested on: ducksalad (Heteranthera limosa); experiment: Test B flooded paddy test, ducksalad; conditions: Flood, 250 g ai/ha, applied to paddy water, 2-leaf stage, visual evaluation after 13 to 15 d
In short: (§2)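 Visual injury scores run from 0 (no effect) to 100 (complete control), assigned by comparison with controls 13 to 15 d after treatment. Treatment went into floodwater standing 3 cm over the soil of pots holding 2-leaf plants.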

[3] = tested on: barnyardgrass (Echinochloa crus-galli); experiment: Test A postemergence, barnyardgrass; conditions: 0 to 100 scale, 0 no effect, 100 complete control
In short: as §1

[4] = tested on: pigweed (Amaranthus retroflexus); experiment: Test A postemergence, pigweed; conditions: 0 to 100 scale, 0 no effect, 100 complete control
In short: as §1

[5] = tested on: ragweed (common ragweed, Ambrosia elatior); experiment: Test A postemergence, ragweed; conditions: 0 to 100 scale, 0 no effect, 100 complete control
In short: as §1

[6] = tested on: sedge, umbrella (small-flower umbrella sedge, Cyperus difformis); experiment: Test B flooded paddy test, umbrella sedge; conditions: Flood, 250 g ai/ha, applied to paddy water, 2-leaf stage, visual evaluation after 13 to 15 d
In short: as §2

[7] = tested on: blackgrass (Alopecurus myosuroides); experiment: Test A postemergence, blackgrass; conditions: 0 to 100 scale, 0 no effect, 100 complete control
In short: as §1

corn (Zea mays) = experiment: Test A postemergence, corn; conditions: 0 to 100 scale, 0 no effect, 100 complete control
In short: as §1

kochia (Kochia scoparia) [8] = experiment: Test A preemergence, kochia; conditions: 0 to 100 scale, 0 is no effect, 100 is complete control
In short: as §1

[9] = tested on: ragweed (common ragweed, Ambrosia elatior); experiment: Test A preemergence, ragweed; conditions: 0 to 100 scale, 0 is no effect, 100 is complete control
In short: as §1

[10] = tested on: barnyardgrass (Echinochloa crus-galli); experiment: Test A preemergence, barnyardgrass; conditions: 0 to 100 scale, 0 is no effect, 100 is complete control
In short: as §1

rice (Oryza sativa) = experiment: Test B flooded paddy test, rice; conditions: Flood, 250 g ai/ha, applied to paddy water, 2-leaf stage, visual evaluation after 13 to 15 d
In short: as §2

[11] = tested on: foxtail, giant (Setaria faberii); experiment: Test A preemergence, giant foxtail; conditions: 0 to 100 scale, 0 is no effect, 100 is complete control
In short: as §1

[12] = tested on: wheat (Triticum aestivum); experiment: Test A postemergence, wheat; conditions: 0 to 100 scale, 0 no effect, 100 complete control
In short: as §1

kochia (Kochia scoparia) [13] = experiment: Test A postemergence, kochia; conditions: 0 to 100 scale, 0 no effect, 100 complete control
In short: as §1

[14] = tested on: barnyardgrass (Echinochloa crus-galli); experiment: Test B flooded paddy test, barnyardgrass; conditions: Flood, 250 g ai/ha, applied to paddy water, 2-leaf stage, visual evaluation after 13 to 15 d
In short: as §2

[15] = tested on: pigweed (Amaranthus retroflexus); experiment: Test A preemergence, pigweed; conditions: 0 to 100 scale, 0 is no effect, 100 is complete control
In short: as §1

[16] = tested on: ryegrass, Italian (Lolium multiflorum); experiment: Test A postemergence, Italian ryegrass; conditions: 0 to 100 scale, 0 no effect, 100 complete control
In short: as §1

[17] = tested on: galium (catchweed bedstraw, Galium aparine); experiment: Test A postemergence, galium; conditions: 0 to 100 scale, 0 no effect, 100 complete control
In short: as §1

[18] = tested on: foxtail, giant (Setaria faberii); experiment: Test A postemergence, giant foxtail; conditions: 0 to 100 scale, 0 no effect, 100 complete control
In short: as §1

Structure (SMILES)	Ryegrass, Italian plant response rating ([1]; 125 g ai/ha)	Ryegrass, Italian plant response rating ([1]; 500 g ai/ha)	Plant response rating, Ducksalad (0 to 100 scale, 0 is no effect, 100 is complete control) [2]	Plant response rating, Barnyardgrass ([3]; 125 g ai/ha)	Plant response rating, Barnyardgrass ([3]; 500 g ai/ha)	Plant response rating, Pigweed ([4]; 125 g ai/ha)	Plant response rating, Pigweed ([4]; 500 g ai/ha)	Plant response rating, Ragweed ([5]; 125 g ai/ha)	Plant response rating, Ragweed ([5]; 500 g ai/ha)	Plant response rating, Sedge, Umbrella (0 to 100 scale, 0 is no effect, 100 is complete control) [6]	Plant response rating, Blackgrass ([7]; 125 g ai/ha)	Plant response rating, Blackgrass ([7]; 500 g ai/ha)	Plant response rating, Corn (corn (Zea mays); 125 g ai/ha)	Plant response rating, Corn (corn (Zea mays); 500 g ai/ha)	Kochia plant response rating (kochia (Kochia scoparia) [8]; 125 g ai/ha)	Kochia plant response rating (kochia (Kochia scoparia) [8]; 500 g ai/ha)	Ragweed plant response rating ([9]; 125 g ai/ha)	Ragweed plant response rating ([9]; 500 g ai/ha)	Barnyardgrass plant response rating ([10]; 125 g ai/ha)	Barnyardgrass plant response rating ([10]; 500 g ai/ha)	other results
C[C@H](Nc1ncc(C(F)(F)F)c(N)n1)c1cc2c(F)cccc2o1 [Compound 74]	0	0	0	0	0	60	90	20	30	0	0	0	0	0	0	0	0	40	0	0	Plant response rating, Rice (0 to 100 scale, 0 is no effect, 100 is complete control) (rice (Oryza sativa)): 0; Foxtail, Giant plant response rating ([11]; 125 g ai/ha): 0; Foxtail, Giant plant response rating ([11]; 500 g ai/ha): 0; Plant response rating, Wheat ([12]; 125 g ai/ha): 0; Plant response rating, Wheat ([12]; 500 g ai/ha): 0; Plant response rating, Kochia (kochia (Kochia scoparia) [13]; 125 g ai/ha): 20; Plant response rating, Kochia (kochia (Kochia scoparia) [13]; 500 g ai/ha): 60; Plant response rating, Barnyardgrass (0 to 100 scale, 0 is no effect, 100 is complete control) [14]: 0; Pigweed plant response rating ([15]; 125 g ai/ha): 0; Pigweed plant response rating ([15]; 500 g ai/ha): 10; Plant response rating, Ryegrass, Italian ([16]; 125 g ai/ha): 0; Plant response rating, Ryegrass, Italian ([16]; 500 g ai/ha): 0; Plant response rating, Galium ([17]; 125 g ai/ha): 0; Plant response rating, Galium ([17]; 500 g ai/ha): 50; Plant response rating, Foxtail, Giant ([18]; 125 g ai/ha): 0; Plant response rating, Foxtail, Giant ([18]; 500 g ai/ha): 0
C[C@H](Nc1ncc(C(F)(F)F)c(N)n1)c1cc2ccccc2n1C [Compound 76]	0	30	0	0	0	0	0	0	30	0	0	0	0	0	0	0	0	0	0	0	Plant response rating, Rice (0 to 100 scale, 0 is no effect, 100 is complete control) (rice (Oryza sativa)): 0; Foxtail, Giant plant response rating ([11]; 125 g ai/ha): 0; Foxtail, Giant plant response rating ([11]; 500 g ai/ha): 0; Plant response rating, Wheat ([12]; 125 g ai/ha): 0; Plant response rating, Wheat ([12]; 500 g ai/ha): 0; Plant response rating, Kochia (kochia (Kochia scoparia) [13]; 125 g ai/ha): 0; Plant response rating, Kochia (kochia (Kochia scoparia) [13]; 500 g ai/ha): 0; Plant response rating, Barnyardgrass (0 to 100 scale, 0 is no effect, 100 is complete control) [14]: 0; Pigweed plant response rating ([15]; 125 g ai/ha): 0; Pigweed plant response rating ([15]; 500 g ai/ha): 0; Plant response rating, Ryegrass, Italian ([16]; 125 g ai/ha): 0; Plant response rating, Ryegrass, Italian ([16]; 500 g ai/ha): 0; Plant response rating, Galium ([17]; 125 g ai/ha): 30; Plant response rating, Galium ([17]; 500 g ai/ha): 30; Plant response rating, Foxtail, Giant ([18]; 125 g ai/ha): 0; Plant response rating, Foxtail, Giant ([18]; 500 g ai/ha): 0
Nc1nc(N[C@H](c2coc3ccccc23)C2CC2)ncc1C(F)(F)F [Compound 78]	20	50	0	0	0	60	70	0	0	0	0	0	0	0	80	90	0	20	0	0	Plant response rating, Rice (0 to 100 scale, 0 is no effect, 100 is complete control) (rice (Oryza sativa)): 0; Foxtail, Giant plant response rating ([11]; 125 g ai/ha): 0; Foxtail, Giant plant response rating ([11]; 500 g ai/ha): 0; Plant response rating, Wheat ([12]; 125 g ai/ha): 0; Plant response rating, Wheat ([12]; 500 g ai/ha): 0; Plant response rating, Kochia (kochia (Kochia scoparia) [13]; 125 g ai/ha): 0; Plant response rating, Kochia (kochia (Kochia scoparia) [13]; 500 g ai/ha): 20; Plant response rating, Barnyardgrass (0 to 100 scale, 0 is no effect, 100 is complete control) [14]: 0; Pigweed plant response rating ([15]; 125 g ai/ha): 0; Pigweed plant response rating ([15]; 500 g ai/ha): 20; Plant response rating, Ryegrass, Italian ([16]; 125 g ai/ha): 0; Plant response rating, Ryegrass, Italian ([16]; 500 g ai/ha): 0; Plant response rating, Galium ([17]; 125 g ai/ha): 0; Plant response rating, Galium ([17]; 500 g ai/ha): 10; Plant response rating, Foxtail, Giant ([18]; 125 g ai/ha): 0; Plant response rating, Foxtail, Giant ([18]; 500 g ai/ha): 0
Nc1nc(N[C@@H](c2coc3ccccc23)C2CC2)ncc1C(F)(F)F [Compound 79, N2-[(R)-3-benzofuranylcyclopropylmethyl]-5-(trifluoromethyl)-2,4-pyrimidinediamine]	100	100	98	70	100	100	100	80	90	95	60	90	0	70	0	0	100	100	90	100	Plant response rating, Rice (0 to 100 scale, 0 is no effect, 100 is complete control) (rice (Oryza sativa)): 10; Foxtail, Giant plant response rating ([11]; 125 g ai/ha): 100; Foxtail, Giant plant response rating ([11]; 500 g ai/ha): 100; Plant response rating, Wheat ([12]; 125 g ai/ha): 0; Plant response rating, Wheat ([12]; 500 g ai/ha): 20; Plant response rating, Kochia (kochia (Kochia scoparia) [13]; 125 g ai/ha): 90; Plant response rating, Kochia (kochia (Kochia scoparia) [13]; 500 g ai/ha): 90; Plant response rating, Barnyardgrass (0 to 100 scale, 0 is no effect, 100 is complete control) [14]: 55; Pigweed plant response rating ([15]; 125 g ai/ha): 90; Pigweed plant response rating ([15]; 500 g ai/ha): 100; Plant response rating, Ryegrass, Italian ([16]; 125 g ai/ha): 60; Plant response rating, Ryegrass, Italian ([16]; 500 g ai/ha): 80; Plant response rating, Galium ([17]; 125 g ai/ha): 70; Plant response rating, Galium ([17]; 500 g ai/ha): 90; Plant response rating, Foxtail, Giant ([18]; 125 g ai/ha): 60; Plant response rating, Foxtail, Giant ([18]; 500 g ai/ha): 90
CC[C@@H](Nc1ncc(C(F)(F)F)c(N)n1)c1coc2ccccc12 [Compound 80]	70	100	85	40	100	100	100	90	90	95	0	70	20	50	90	100	100	100	90	100	Plant response rating, Rice (0 to 100 scale, 0 is no effect, 100 is complete control) (rice (Oryza sativa)): 10; Foxtail, Giant plant response rating ([11]; 125 g ai/ha): 90; Foxtail, Giant plant response rating ([11]; 500 g ai/ha): 100; Plant response rating, Wheat ([12]; 125 g ai/ha): 30; Plant response rating, Wheat ([12]; 500 g ai/ha): 30; Plant response rating, Kochia (kochia (Kochia scoparia) [13]; 125 g ai/ha): 80; Plant response rating, Kochia (kochia (Kochia scoparia) [13]; 500 g ai/ha): 90; Plant response rating, Barnyardgrass (0 to 100 scale, 0 is no effect, 100 is complete control) [14]: 90; Pigweed plant response rating ([15]; 125 g ai/ha): 90; Pigweed plant response rating ([15]; 500 g ai/ha): 100; Plant response rating, Ryegrass, Italian ([16]; 125 g ai/ha): 0; Plant response rating, Ryegrass, Italian ([16]; 500 g ai/ha): 90; Plant response rating, Galium ([17]; 125 g ai/ha): 70; Plant response rating, Galium ([17]; 500 g ai/ha): 90; Plant response rating, Foxtail, Giant ([18]; 125 g ai/ha): 0; Plant response rating, Foxtail, Giant ([18]; 500 g ai/ha): 0
